The values that follow come from patent US7001770B1, “Calpain inhibitors and their applications” (priority 1998, dated 2006).

Common to all, as to format: cell-based
One test has as its system NCI-H596 cells. Put plainly: Apoptosis by annexin V-FITC staining, flow cytometry. As to conditions: CI-1 treatment; p53 mutated lung cell line. The procedure:
(§1) The effect of an inhibitor of μ-calpains, CI-1 (N-acetyl-leu-leu-norleucinal), was investigated for its ability to enhance p53 mediated apoptosis in tumor cell lines having p53+ and p53− status listed in Table1. Each cell line was treated with 5–50 μM CI-1 for 17–26 hours. To detect a G0/G1 block, bromodeoxyuridine (BrdU) incorporation followed by flow cytometric analysis was done 17 hours post-treatment as described in Example 4 herein. […] The results of these experiments are presented in FIGS. 1 and 2 of the attached drawings. In FIG. 1, each point on the graph represents percentage annexin V positive after background percentage (DMF alone) was subtracted.
(§2) CI-1 was obtained from Boehringer-Mannheim Biochemicals (Indianapolis, Ind.). The CI-1 containing media was prepared as follows. CI-1 was diluted in dimethylformamide (DMF) to a concentration of 33.3 μM/μl. The CI-1 solution in DMF was added to achieve a final concentration in the media of 5 or 10 μM final concentration of CI-1. An equivalent volume of DMF alone was added to the control cells. Calpain inhibitor 2, N-acetyl-leu—leu-methioninal (Boehringer Mannheim) was added to cell lines at 5–50 μM final concentration with or without rAd-p53 for 26 hours.
(§3) At a time of 17 (or 26 hours) post infection, the percentage of cells undergoing apoptosis was determined by convential apoptotic markers. Apoptosis was monitored visually by observing blebbed nuclei characteristic of apoptosis, by propidium iodide staining (using propidium iodide commercially available from Molecular Probes, Inc.) followed by flow cytometric analysis to look for subgenomic populations of cells, and by labeling cells with annexin V-FITC (commercially available from Boehringer Mannheim) in substantial accordance with the instructions provided by the manufacturer, followed by flow cytometric analysis on a FACScan Flow Cytometer (commercially available from Becton Dickinson).

The next test has as its system A549 cells. Described as above. To be noted: 26 hours post treatment. The procedure:
as §1, §2, §3

In the next test the test system is Hep3B cells. The description is as above. As to conditions: for Percent Annexin V Positive Staining: 26 hours post treatment. The procedure: as §1, §2, §3
The test system of test [1] is p53 protein levels in Hep3B cells (p53 null). The test can be described thus: Western blot of p53 protein levels. As to conditions: rAd-p53 in the presence of 10 μM calpain inhibitor 1 versus rAd53 alone; 17 hours. The procedure:
To determine if increases in exogeneous p53 levels occurred in response to CI-1, the p53 null cell line Hep3B was infected with 1×10^9 particle/ml and assayed for p53 protein levels by western blots 17 hours post-infection. No p53 protein was detected in untreated Hep3B. p53 protein was detected in cells infected with rAd53 alone, and increased greater then 10 fold when infected with rAd-p53 in the presence of 10 μM calpain inhibitor 1. […] The enhancement of p53 stability by CI-1 may not, therefore, be the sole mechanism by which enhanced cell death has been achieved. […] Thus, a new mechanism of action is involved other than p53 stability in the increased induction of apoptosis by the combination of CI-1 and p53.
At 17 hours post treatment, cells were lysed in protein lysis buffer (50 mM tris, 250 mM NaCl, 50 mM NaF, 5 mM EDTA and 0.1% NP-40 with 1 mM PMSF). Cell lysates were subjected to electrophoresis. 10 μg of protein was added per lane on a 12% polyacrylamide gel and transfered onto nitrocellulose membranes. The membranes were subjected to western blot analysis using antibodies specific for p53 or p21 (Calbiochem, p53 antibody Ab-6, and p21 antibody Ab-7). […] Blots were developed using enhanced chemiluminescence detection system (Amersham) and quantitated using NIH imaging analysis.

Square brackets hold non-standard residues; d marks the D form. Peptide text beside a SMILES is read from it. Nle = CCCC[C@H](N)C(=O)O

As to `CCCC[C@@H](C=O)NC(=O)[C@H](CC(C)C)NC(=O)[C@H](CC(C)C)NC(C)=O` [CI-1, N-acetyl-leu-leu-norleucinal] (Ac-Leu-Leu-[Nle]-aldehyde), in the test on NCI-H596 cells, the “increase in the percent of cells annexin V positive in response to treatment” value is “no increase”. Moreover, the “Percent Annexin V Positive Staining” value with A549 cells (CI-1 10 μM) amounted to 6%; in the test on A549 cells (CI-1 20 μM), 5%; in the test with A549 cells (CI-1 50 μM), 18%; in the test on Hep3B cells (CI-1 20 μM), 36%; in the test on Hep3B cells (CI-1 50 μM), 32%. For the same compound, in the test on Hep3B cells (highest concentration of inhibitor (50 μM), p53 null), the “increase in the percentage of apoptotic cells” value was “no increase”. The “increase in p53 protein” value in test [1] is recorded as above 10 fold.
